# Tested on: patients with congestive heart failure or recent myocardial infarction
# Settings: human, in vivo
# Source text: Genomic DNA samples were obtained from the blood samples of patients enrolled in the DIAMOND study (Danish Investigations of Arrhythmia and Mortality on Dofetilide) or a clinical protocol similar in nature to the DIAMOND Study. These studies focused on the effects of Dofetilide on two populations of patients, one with congestive heart failure and one with recent myocardial infarction associated with left ventricular dysfunction (ejection fraction <35%) (Moller, M., (1996) Lancet, 348(9041):1597-8; Moller, M. et al., (1997) Congest Heart Fail., 7(3):146-150). DNA samples were obtained from 105 patients in total. Of the 105 patients, 7 developed torsade de pointes (TdP) upon treatment with Dofetilide while the remaining 98 patients responded to treatment without developing TdP as a side effect.
smiles,measurement,value
CN(CCOc1ccc(NS(C)(=O)=O)cc1)CCc1ccc(NS(C)(=O)=O)cc1 [Dofetilide],patients who developed torsade de pointes (TdP) upon treatment,7

# — patent US20050059032A1, “Methods & compositions relating to drug-induced arrhythmia” (Pfizer Inc, priority 2002, published 2005)
